Reference: US10959998B2, “Pharmaceutical use and pharmaceutical composition of pyrroloquinoline quinine, its derivatives and/or its salts” (priority 2015, dated 2021)

Columns and labels:
[1] = tested on: endometrial stromal cells; assay: Transwell/matrigel invasion assay; assay type: cell-based, human; settings: 48 h
Description: 500 μL culture medium containing 10% FBS was added into each wells in a 24-well plate. Transwell chambers were treated with 0.3 mg/ml FN diluted by serum free 1640 culture medium (BD company). The cells were seeded (5×10^4 cells/chamber) in the transwell up-chamber, in which 100 μL media were kept finally. The cells were cultured in an incubator at 37° C. in an air atmosphere containing 5% CO2 for the specified time. The chambers were taken out, stained with 0.1% crystal violet, and were photographed. Crystal violet on the membrane was dissolved with 300 μL of 33% Glacial acetic acid. The optical absorption was measured at wavelength 573 nm. On the ice, 100 μL matrigel was taken in with pre-chilled micropipette, transferred into 300 ul pre-chilled serum free medium. The mixture solution was thoroughly mixed to achieve uniform. 25 ul of the previous diluted matrigel was put into transwell up-chamber, covering the whole carbon ester membrane. The transwell was incubated at 37° C., 30 min for Matrigel gelling. The rest treatment was the same as that in Transwell assay.

[2] = tested on: endometrial stromal cells; assay: Apoptosis by Annexin V-FITC/PI flow cytometry; assay type: cell-based, human; settings: regardless of dose, 24 h
Description: (§1) Endometrial tissues were surgically isolated from patients with chocolate cyst of ovary, washed 2 to 3 times with PBS supplemented with antibiotics in ultra-clean cabinet, and cut into tiny pieces (about 1 mm^3 in size) with aseptic scissors. The tissues were digested with 1 mg/ml collagenase type I for 30 to 90 min at 37° C., and continually digested with Dnase I (final concentration of 15 U/ml, 2% Dnase I) for another 30 min. The digested tissues were filtered thorough 60-mesh stainless steel filter cell strainer to remove the undigested cell tissues, and were further filtered with 200- or 400-mesh strainer. The filtered solution was centrifuged at 1000 rpm for 5 min. After removing the supernatants, the cells were washed once with culture medium compounded by DMEM/F12 (1:1 v/v) and 10% fetal bovine serum, re-suspended in the culture medium, and seeded in 6-well tissue culture plate or T25 tissue culture flasks with an appropriate density. After 24 hours incubation, the culture medium was changed to remove the non-adherent blood cells, endothelial cells, macrophages and other miscellaneous cells. […] Vimentin which expresses specifically in stromal cells was detected by immuno-fluorescence to measure the cell purity. […] Cell cycle was determined with flow cytometry. […] Cell apotosis was determined by flow cytometry.

[3] = tested on: superoxide anion radical (O2.-) in endometrial stromal cells; assay: Determination of superoxide anion (O2.-) content; assay type: cell-based, human; settings: 18 h
Description: Superoxide anion (O2.^−) assay kit was purchased from Nanjing Jiancheng Bioengineering Insitute; Hydroxyl free radical assay kit was purchased from Shanghai Xinyu Biological Technology Co., Ltd., Hydrogen Peroxide Assay Kit was purchased from Beyotime Biotechnology Research Institute. The cells were cultured in 96-well cell culture plates for 24 h after the cells adhered to the plate. Three different concentrations PQQ (30 nm, 300 nm and 3 um) were added to the culture medium respectively. After additional 18 h incubation, the culture medium was discarded, and fresh culture medium supplemented with NBT (a final concentration of 1 mg/mL) was added to the cells. The cells were continually cultured for another 1 h at 37° C. The cells were fixed with 100% methanol, and naturally dried. 120 μL KOH (2 mol/L) and 140 μL DMSO were added to the cells. The optical density at wavelength 570 nm was measured.

[4] = tested on: ectopic endometrial stromal cells; assay: Cell cycle by propidium iodide flow cytometry; assay type: cell-based, human; settings: 24 h, p<0.01
Description: as §1

[5] = tested on: hydroxyl radical (.OH) in endometrial stromal cells; assay: Determination of hydroxyl radical (.OH) content; assay type: cell-based, human; settings: 18 h
Description: Superoxide anion (O2.^−) assay kit was purchased from Nanjing Jiancheng Bioengineering Insitute; Hydroxyl free radical assay kit was purchased from Shanghai Xinyu Biological Technology Co., Ltd., Hydrogen Peroxide Assay Kit was purchased from Beyotime Biotechnology Research Institute. The cells were seeded in 6-well plate at 8×10^5 cells/well, and incubated for 24 h after the cells adhered to the plate. Three different concentrations of PQQ (30 nm, 300 nm and 3 μm) were added to the cultures respectively. The cells were incubated for additional 18 h. At the end of the treatment, the cultured cells were collected. 50 μL samples were added to each cell, followed by addition of 50 μL of antibody working solution. The sample was shaken to achieve a uniform mixture, and reacted at 37° C. for 30 min. The plates were then washed for four to five times. 100 μL of enzyme marker was added to each well. The resulting mixture was allowed to react for 20 min at 37° C. Coloration method: 50 μL of buffer liquid and 50 μL of substrate solution were added to each well in sequence. The mixture solution was gently shaken to achieve a uniform mixing, and coloured for 10 min in the dark at 37° C. […] The optical density at wavelength 560 nm was measured with microplate reader (Read the data in 20 min).

ectopic endometrial foci = assay: Endometriosis rat model, weight of transplanted foci; assay type: in vivo, SD rats
[6] = tested on: hydrogen peroxide (H2O2) in endometrial stromal cells; assay: Determination of hydrogen peroxide (H2O2) content; assay type: cell-based, human; settings: 18 h
Description: Superoxide anion (O2.^−) assay kit was purchased from Nanjing Jiancheng Bioengineering Insitute; Hydroxyl free radical assay kit was purchased from Shanghai Xinyu Biological Technology Co., Ltd., Hydrogen Peroxide Assay Kit was purchased from Beyotime Biotechnology Research Institute. The cells were seeded in 6-well cell culture plates and incubated for 24 h after the cells adhered to the plate. Three different concentrations PQQ (30 nm, 300 nm and 3 μm) were added to the cultures respectively. After additional 18 h incubation, the cells were lysed using the lysis buffer contained in reagent kit, centrifuged at 12000×g for 5 min at 4° C. 50 μL of sample supernatant was mixed with 100 μL detection solution, rested 30 min at room temperature. The optical density at wavelength 560 nm was measured.

## O=C(O)c1cc(C(=O)O)c2c(n1)C(=O)C(=O)c1cc(C(=O)O)[nH]c1-2 [PQQ, pyrroloquinoline quinone]
[1]; 300 nM PQQ, statistically meaningful
  inhibitory effect on cell invasion compared to the control group: definite inhibitory effect
[1]; 3 μM PQQ
  reduction of invasion ability of endometrial stromal cells: 35%
[1]; PQQ
  inhibitory effect on cell invasion compared to the control group: not obvious
[2]
  apoptosis or necrosis compared to the control: No endometrial stromal cells apoptosis or necrosis
[3]; PQQ 300 nM
  relative content of superoxide anion radical (O2.-): significantly declined
[3]; PQQ 3 uM
  relative content of superoxide anion radical (O2.-): significantly declined
[4]; PQQ 3 um
  cell cycle: arrest the cell in G0/G1 phase
[4]; PQQ 300 nm
  cell cycle: arrest the cell in G0/G1 phase
[5]; PQQ 300 nM
  relative content of hydroxyl radical (.OH): significantly declined
[5]; PQQ 3 uM
  relative content of hydroxyl radical (.OH): significantly declined
Ectopic endometrial foci; Example 5, rats, after 4 weeks treatment
  weight of ectopic endometrial foci compared with the control group: evidently lower than that from the control group
Ectopic endometrial foci; Example 5, rats, water feeding 4 week, PQQ 1 mg/kg, NAC 10 mg/kg, Resveratro 10 mg/kg, n=9
  weight of cysts after treatment (mg) Mean ± SD: 71.2 ± 23.2 mg
Ectopic endometrial foci; Example 7, rats, 4 weeks in drinking water, PQQ (disodium salt) 1 mg/kg/day, NAC 10 mg/kg/day, P+N (H) 1+10, P+N (L) 0.2+5 mg/kg/day, n=12
  weight of ectopic cys after treatment (mg) Mean ± SD: 69.5 ± 12.7 mg
Ectopic endometrial foci; Example 7, rats, after 4 weeks treatment, PQQ as disodium salt
  weight of ectopic cyst compared with model control group: evidently lower than that in the model control group
[6]; PQQ 300 nM
  relative content of hydrogen peroxide (H2O2): significantly declined
[6]; PQQ 3 uM
  relative content of hydrogen peroxide (H2O2): significantly declined
